Test results as given in patent US9315503B2, “Kinase inhibitors” (CHIESI FARMACEUTICI S.p.A., priority 2011, dated 2016).
Where a name gives a salt, the structure may show the parent alone.

What was measured:
p38alpha = target: T1, p38alpha (Homo sapiens, UniProt Q16539); assay: P38Alpha enzyme inhibition assay (Alphascreen kinase activity assay); type: biochemical; conditions: 100 pM p38alpha, 250 μM ATP, 2 hours pre-incubation at 25° C., read-out: p38α inhibition (IC50 values)
T1 construct: purchased Invitrogen PV3304
In short: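 AlphaScreen read-out: after an EDTA stop, an anti-phospho-ATF2 antibody with Protein A acceptor and donor beads measured substrate phosphorylation. Compounds sat 2 h at 25°C with 100 pM p38α and 0.3 µg/ml ATF-2 fusion protein (pH 7.5, 1% DMSO) before 250 µM ATP was added for 1 h. IC50 from dose-response.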

[1] = system: LPS-stimulated TNFα release from PBMCs; assay: LPS-stimulated PBMC TNFα release assay; type: cell-based; conditions: inhibition of TNFα release, human PBMCs, LPS 10 ng/ml, 18 h, ELISA, read-out: p38α inhibition (IC50 values)
In short: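 TNFα in supernatants measured by ELISA after 18 h LPS (10 ng/ml) challenge of human PBMCs given 1 h compound pretreatment at 37 °C in medium with 1% FBS. Percent inhibition versus control release fitted to dose-response curves for IC50; at least three independent runs.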

T1 sequence (Q16539 whole entry): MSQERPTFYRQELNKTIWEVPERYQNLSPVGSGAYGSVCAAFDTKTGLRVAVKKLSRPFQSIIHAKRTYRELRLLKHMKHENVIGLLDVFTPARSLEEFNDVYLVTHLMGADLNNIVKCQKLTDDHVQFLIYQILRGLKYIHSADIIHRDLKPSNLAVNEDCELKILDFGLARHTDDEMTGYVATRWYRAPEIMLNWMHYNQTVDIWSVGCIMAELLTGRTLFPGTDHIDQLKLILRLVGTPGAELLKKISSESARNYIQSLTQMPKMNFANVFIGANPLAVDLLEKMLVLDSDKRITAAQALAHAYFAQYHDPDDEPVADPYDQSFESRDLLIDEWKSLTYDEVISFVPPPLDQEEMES

CN(C)CCn1cc(-n2nc(C(C)(C)C)cc2NC(=O)N[C@H]2CC[C@@H](Oc3ccc4nnc(N5CCCCC5)n4c3)c3ccccc32)cn1 [Example 108, 1-[3-tert-Butyl-1′-(2-dimethylamino-ethyl)-1′H-[1,4′]bipyrazolyl-5-yl]-3-[(1S,4R)-4-(3-piperidin-1-yl-[1,2,4]triazolo[4,3-a]pyridin-6-yloxy)-1,2,3,4-tetrahydro-naphthalen-1-yl]-urea]
IC50 (p38alpha): < 0.01 µM | IC50 [1]: < 0.01 µM

COc1c(NC(=O)N[C@H]2CC[C@@H](Oc3ccc4nnc([C@@H]5CCCN5C)n4c3)c3ccccc32)cc(C(C)(C)C)cc1NS(C)(=O)=O [Example 109, N-[5-tert-Butyl-2-methoxy-3-(3-{(1S,4R)-4-[3-((S)-1-methyl-pyrrolidin-2-yl)-[1,2,4]triazolo[4,3-a]pyridin-6-yloxy]-1,2,3,4-tetrahydro-naphthalen-1-yl}-ureido)-phenyl]-methanesulfonamide formate salt]
IC50 (p38alpha): < 0.01 µM | IC50 [1]: < 0.01 µM

C[C@H]1CCCCN1c1nnc2ccc(O[C@@H]3CC[C@H](NC(=O)Nc4cc(C(C)(C)C)nn4CCO)c4ccccc43)cn12 [Example 110, 1-[5-tert-Butyl-2-(2-hydroxy-ethyl)-2H-pyrazol-3-yl]-3-{(1S,4R)-4-[3-((S)-2-methyl-piperidin-1-yl)-[1,2,4]triazolo[4,3-a]pyridin-6-yloxy]-1,2,3,4-tetrahydro-naphthalen-1-yl}-urea]
IC50 (p38alpha): < 0.01 µM | IC50 [1]: < 0.01 µM

C[C@H]1CCCCN1c1nnc2ccc(O[C@@H]3CC[C@H](NC(=O)Nc4cc(C(C)(C)C)on4)c4ccccc43)cn12 [Example 111, 1-(5-tert-Butyl-isoxazol-3-yl)-3-{(1S,4R)-4-[3-((S)-2-methyl-piperidin-1-yl)-[1,2,4]triazolo[4,3-a]pyridin-6-yloxy]-1,2,3,4-tetrahydro-naphthalen-1-yl}-urea]
IC50 (p38alpha): < 0.01 µM | IC50 [1]: < 0.01 µM

CC(C)(C)c1cc(NC(=O)N[C@H]2CC[C@@H](Oc3ccc4nnc(N5CCCCC5)n4c3)c3ccccc32)n(-c2cnn(CCN3CCOCC3)c2)n1 [Example 112, 1-[3-tert-Butyl-1′-(2-morpholin-4-yl-ethyl)-1′H-[1,4′]bipyrazolyl-5-yl]-3-[(1S,4R)-4-(3-piperidin-1-yl-[1,2,4]triazolo[4,3-a]pyridin-6-yloxy)-1,2,3,4-tetrahydro-naphthalen-1-yl]-urea formate salt]
IC50 (p38alpha): < 0.01 µM | IC50 [1]: < 0.01 µM

CN(C)CCCn1cc(-n2nc(C(C)(C)C)cc2NC(=O)N[C@H]2CC[C@@H](Oc3ccc4nnc(N5CCCCC5)n4c3)c3ccccc32)cn1 [Example 113, 1-[3-tert-Butyl-1′-(3-dimethylamino-propyl)-1′H-[1,4′]bipyrazolyl-5-yl]-3-[(1S,4R)-4-(3-piperidin-1-yl-[1,2,4]triazolo[4,3-a]pyridin-6-yloxy)-1,2,3,4-tetrahydro-naphthalen-1-yl]-urea formate salt]
IC50 (p38alpha): < 0.01 µM | IC50 [1]: < 0.01 µM

CC(C)(C)c1cc(NC(=O)N[C@H]2CC[C@@H](Oc3ccc4nnc(N5CCCCC5)n4c3)c3ccccc32)n(-c2cnn(CCCN3CCOCC3)c2)n1 [Example 114, 1-[3-tert-Butyl-1′-(3-morpholin-4-yl-propyl)-1′H-[1,4′]bipyrazolyl-5-yl]-3-[(1S,4R)-4-(3-piperidin-1-yl-[1,2,4]triazolo[4,3-a]pyridin-6-yloxy)-1,2,3,4-tetrahydro-naphthalen-1-yl]-urea formate salt]
IC50 (p38alpha): < 0.01 µM | IC50 [1]: < 0.01 µM

C[C@@H]1CCC[C@H](C)N1c1nnc2ccc(O[C@@H]3CC[C@H](NC(=O)Nc4cc(F)cc(N5CCOCC5)c4)c4ccccc43)cn12 [Example 115, 1-{(1S,4R)-4-[3-((2S,6R)-2,6-Dimethyl-piperidin-1-yl)-[1,2,4]triazolo[4,3-a]pyridin-6-yloxy]-1,2,3,4-tetrahydro-naphthalen-1-yl}-3-(3-fluoro-5-morpholin-4-yl-phenyl)-urea]
IC50 (p38alpha): < 0.01 µM | IC50 [1]: < 0.01 µM

C[C@H]1CCCCN1c1nnc2ccc(O[C@@H]3CC[C@H](NC(=O)Nc4cc(C(C)(C)C)nn4CCN4CCOCC4)c4ccccc43)cn12 [Example 116, 1-[5-tert-Butyl-2-(2-morpholin-4-yl-ethyl)-2H-pyrazol-3-yl]-3-{(1S,4R)-4-[3-((S)-2-methyl-piperidin-1-yl)-[1,2,4]triazolo[4,3-a]pyridin-6-yloxy]-1,2,3,4-tetrahydro-naphthalen-1-yl}-urea]
IC50 (p38alpha): < 0.01 µM | IC50 [1]: < 0.01 µM

C[C@@H]1CCC[C@H](C)N1c1nnc2ccc(O[C@@H]3CC[C@H](NC(=O)Nc4cc(C(C)(C)C)nn4CCO)c4ccccc43)cn12 [Example 118, 1-[5-tert-Butyl-2-(2-hydroxy-ethyl)-2H-pyrazol-3-yl]-3-{(1S,4R)-4-[3-((2S,6R)-2,6-dimethyl-piperidin-1-yl)-[1,2,4]triazolo[4,3-a]pyridin-6-yloxy]-1,2,3,4-tetrahydro-naphthalen-1-yl}-urea]
IC50 (p38alpha): < 0.01 µM | IC50 [1]: < 0.01 µM

CN(C)CCn1cnc(-n2nc(C(C)(C)C)cc2NC(=O)N[C@H]2CC[C@@H](Oc3ccc4nnc(N5CCCCC5)n4c3)c3ccccc32)c1 [Example 119, 1-{5-tert-Butyl-2-[1-(2-dimethylamino-ethyl)-1H-imidazol-4-yl]-2H-pyrazol-3-yl}-3-[(1S,4R)-4-(3-piperidin-1-yl-[1,2,4]triazolo[4,3-a]pyridin-6-yloxy)-1,2,3,4-tetrahydro-naphthalen-1-yl]-urea]
IC50 (p38alpha): < 0.01 µM | IC50 [1]: 0.01 to 0.1 µM

CN1CCCC[C@H]1c1nnc2ccc(O[C@@H]3CC[C@H](NC(=O)Nc4cc(C(C)(C)C)nn4CCO)c4ccccc43)cn12 [Example 120, 1-[5-tert-Butyl-2-(2-hydroxy-ethyl)-2H-pyrazol-3-yl]-3-{(1S,4R)-4-[3-((S)-1-methyl-piperidin-2-yl)-[1,2,4]triazolo[4,3-a]pyridin-6-yloxy]-1,2,3,4-tetrahydro-naphthalen-1-yl}-urea]
IC50 (p38alpha): < 0.01 µM | IC50 [1]: < 0.01 µM

C[C@@H]1CCC[C@H](C)N1c1nnc2ccc(O[C@@H]3CC[C@H](NC(=O)Nc4cc(C(C)(C)C)nn4CCN4CCOCC4)c4ccccc43)cn12 [Example 121, 1-[5-tert-Butyl-2-(2-morpholin-4-yl-ethyl)-2H-pyrazol-3-yl]-3-{(1S,4R)-4-[3-((2S,6R)-2,6-dimethyl-piperidin-1-yl)-[1,2,4]triazolo[4,3-a]pyridin-6-yloxy]-1,2,3,4-tetrahydro-naphthalen-1-yl}-urea]
IC50 (p38alpha): < 0.01 µM | IC50 [1]: < 0.01 µM

CN(C)CCOc1cccc(-n2nc(C(C)(C)C)cc2NC(=O)N[C@H]2CC[C@@H](Oc3ccc4nnc(N5C6CCCC5CC6)n4c3)c3ccccc32)c1 [Example 122, 1-{(1S,4R)-4-[3-(8-Aza-bicyclo[3.2.1]oct-8-yl)-[1,2,4]triazolo[4,3-a]pyridin-6-yloxy]-1,2,3,4-tetrahydro-naphthalen-1-yl}-3-{5-tert-butyl-2-[3-(2-dimethylamino-ethoxy)-phenyl]-2H-pyrazol-3-yl}-urea formate salt]
IC50 (p38alpha): < 0.01 µM | IC50 [1]: < 0.01 µM

C[C@@H]1CCCCN1c1nnc2ccc(O[C@@H]3CC[C@H](NC(=O)Nc4cc(C(C)(C)C)nn4-c4cccc(OCCN(C)C)c4)c4ccccc43)cn12 [Example 123, 1-{5-tert-Butyl-2-[3-(2-dimethylamino-ethoxy)-phenyl]-2H-pyrazol-3-yl}-3-{(1S,4R)-4-[3-((R)-2-methyl-piperidin-1-yl)-[1,2,4]triazolo[4,3-a]pyridin-6-yloxy]-1,2,3,4-tetrahydro-naphthalen-1-yl}-urea partial formate salt]
IC50 (p38alpha): < 0.01 µM | IC50 [1]: < 0.01 µM
